# According to paper PMC11056994, “Potentiating Activity of GmhA Inhibitors on Gram-Negative Bacteria” (Journal of Medicinal Chemistry, 2024):
# Like-named read-outs stand apart in the source and are kept apart here.
# Key:
# [1] = tested on: E. coli C7 (018:K1:H7) LPS biosynthesis; experiment: Inhibition of bacterial LPS biosynthesis (silver-stained LPS SDS-PAGE); format: cell-based; conditions: for EC50: Escherichia coli
# Description: The compounds to be tested were prepared in deionized water/DMSO (50/50) solutions and added (25 μL) in sterile culture microtubes. The test bacterial isolate was isolated on tryptic soy agar (TSA) overnight. Isolated colonies were cultured in 10 mL of LB medium at 37 °C up to an OD of typically 0.15. These exponentially growing bacteria were finally diluted to 5 × 10^5 cfu/mL and added in each well (225 μL) for incubation with the compounds at 37 °C for approximately 5 h, up to an OD of ≈0.2–0.4. Some test compounds, e.g., phospho-sugars are actively transported into the bacterial cytosol via the phospho-sugar transporter UhpT (Figure S3). 2.5 μL portion of a 10 mM water solution of glucose-6-phosphate (G6P, 100 μM final concentration, from Sigma) was added in the culture tube in order to induce UhpT expression. LPS extraction: Bacterial cultures were normalized via OD determination, pelleted, and washed with 1 mL of phosphate-buffered-saline (PBS). The pellets were then denatured for 10 min at 95–100 °C in 50 μL of 0.2% sodium dodecyl sulfate (SDS), β-mercaptoethanol 1%, glycerol 36%, Tris 30 mM, pH 7.4, and bromophenol blue 0.001%. Samples were cooled down to room temperature, supplemented with 1.5 μL of proteinase K at 20 mg/mL, incubated for 1 h at 55 °C, and centrifuged for 30 min at 13,000 rpm at 25 °C. The resulting supernatant, containing LPS, was finally analyzed by SDS-PAGE electrophoresis. LPS SDS-PAGE electrophoresis: Polyacrylamide gels (16%/4% acrylamide for separation and concentration, respectively) were prepared, loaded with 8 μL of LPS extracts, and migrated. Silver staining: Gels were incubated overnight in 5% acetic acid/40% ethanol/deionized water, treated by 1% periodic acid/5% acetic acid for 15 min, washed 4 times for 10 min in deionized water, and finally incubated for 18 min in the dark in a silver nitrate solution composed of 56 mL of 0.1 M NaOH (56 mL), 33% aq ammonia (4 mL), 5% AgNO3 (45 mL), and deionized water (195 mL). Gels were then washed extensively in deionized water for 30 min and incubated for 10–15 min (up to LPS band appearance) in the revelation mix composed of 300 mL of deionized water (300 mL), 36.5% formaldehyde (0.3 mL, Fluka), and 2.3 M citric acid (0.1 mL). The revelation was stopped by incubating the gels in 10% acetic acid for 5 min. Gels were finally washed in deionized water, numerized with a Samsung PL51 camera, and analyzed by ImageJ software. The percentage of inhibition of LPS heptosylation was defined as the relative area of the Re-LPS band compared to the cumulated areas of Re-LPS and Core-LPS bands.
# E. coli GmhA = E. coli GmhA (Escherichia coli, UniProt P63224); format: biochemical; conditions: for IC50: E. coli GmhA, luminescence assay, mean ± SD of at least 3 independent experiments
# Description: The assay buffer “AB” contained 50 mM HEPES, pH 7.5, 1 mM MnCl2, 25 mM KCl, 0.012% Triton-X100, 1 mM dithiothreitol (DTT), and 0.1 μM myelin basic protein (MBP, Sigma, ref M1891). The following components were added in a white polystyrene Costar plate up to a final volume of 30 μL: 10 μL of inhibitor dissolved in DMSO/water 50/50 and 20 μL of GmhA of E. coli in AB. After 30 min of preincubation at room temperature, 30 μL of the substrate mixture in AB were added in each well to give a final volume of 60 μL. […] After 30 min of incubation at room temperature, 100 μL of the revelation mix were added to a final volume of 160 μL, including the following constituents at the respective final concentrations: 10,000 light units/mL luciferase (Sigma), 20 μM D-luciferin (Sigma), and 100 μM N-acetylcysteamine (Aldrich). Luminescence intensity was immediately measured on a Luminoskan instrument (Thermofisher) and converted into inhibition percentages. For IC50 determinations, the inhibitor was tested at 6 to 10 different concentrations, and the related inhibitions were fitted using XLFit 5 (IDBS) to a classical Langmuir equilibrium model with Hill slope, according to the equation: %inhibition = 100 c^n/(c^n + IC50^n), where c is the compound concentration and n is the Hill coefficient.
# GmhA = tested on: GmhA; design: method as in PMID 21922563; conditions: cited from earlier work
# wild-type E. coli strain = tested on: wild-type E. coli strain; design: method as in PMID 21922563; conditions: cited from earlier work
# E. coli C7 [2] = experiment: MIC of the compounds alone on E. coli C7; format: cell-based
# Description: Then, we investigated the cytotoxicity and the ability of such inhibitors to potentiate the antimicrobial activity of macrolide and rifamycin antibiotics.
# (§1) The compound to be tested was diluted in 50 mM HEPES buffer (pH 7.4) from 10 mM stock solution in DMSO. Five microliters of compound dilution or buffer were distributed in a sterile clear round-bottom 96-well polystyrene microplate (Corning). Five microliters of serial 2-fold dilutions of reference antibiotics [Erythromycin (Fluka), Rifampicin (Fluka)] in DMSO were added. An exponentially growing preculture of E. coli C7 (O18:K1:H7) in LB was diluted to 10^4 cfu/mL and supplemented with 100 μM G6P, and 90 μL of this suspension were added to the microplates. After overnight incubation at 37 °C, the MIC of the antibiotics were determined for each test compound concentration as the lowest antibiotic concentration for which no bacterial pellet is visible without magnification.
# HepG2 cytotoxicity = format: cell-based; conditions: human; n = 2
# Description: HepG2 cells (LGC Promochem, ref HB-8065) in EMEM medium supplemented with fetal bovine serum (10%), Ampicillin (100 mg/L), and Streptomycin (100 mg/L) were plated on cell culture plates (Costar 3596, 2 × 10^4 cells/well) and incubated overnight at 37 °C in 5% CO2. The culture medium was then aspirated and replaced by supplemented EMEM (210 μL including 2% DMSO) containing dilutions of compounds. Plates were incubated overnight at 37 °C in 5% CO2. Cell viability was determined by the Celltiter Aqueous One Cell Proliferation Assay (G3581–80, Promega) according to the manufacturer’s recommendations, using a Multiskan absorption reader (490 nm).
# E. coli C7 [3] = experiment: Sensitization to killing by the complement of human serum; format: cell-based; conditions: E. coli C7 grown 5 h with 0.3 and 1 mM compound 24; in 30 min
# Description: The E. coli C7 wild type and gmhA-deleted strains were isolated from TSA plates and grown overnight in 10 mL of LB broth at 35 °C. […] After 5 h of incubation under shaking at 37 °C, the bacterial inoculum was adjusted to 10^5 cfu/mL in 20% LB broth mixed with 80% human serum (Biopredic) and filtered on 0.45 μm pore size membranes and used as such, or further heated for 30 min at 56 °C for complement deactivation. A volume of 250 μL of each condition was finally incubated at 37 °C in microtubes, and aliquots of 10 μL were sampled at 0, 15, 30, 60, 120, and 180 min for bacterial enumeration in duplicate.
# E. coli C7 (O18:K1:H7) [4] = experiment: Time-kill kinetics of rifampicin in combination with compound 17; format: cell-based; conditions: 17 300 μM alone or rifampicin 1 mg/L alone
# Description: Rifampicin (Fluka) was diluted in DMSO, and the compound to be tested was diluted in water from 50 mM stock solution in 50 mM HEPES buffer, pH 7.4. Ten microliter of DMSO was distributed in sterile 1.5 mL polypropylene microtubes (Eppendorf). 2.5 μL of compound dilution or water, 2.5 μL of Rifampicin or DMSO, 2.5 μL of 10 mM G6P in water (100 μM final concentration), and 230 μL of LB were added to the microtubes. E. coli C7 (O18:K1:H7) was grown in 5 mL of LB broth at 37 °C until mid-log phase. The suspension was then diluted in LB to obtain a 100× inoculum of 5 × 10^7 cfu/mL, 2.5 μL of which were added to each microtube (5 × 10^5 cfu/mL final inoculum). The microtubes were incubated at 37 °C, and aliquots of 10 μL were sampled at 0, 2, 4, 6, 8, and 24 h for bacterial enumeration in duplicate.
# E. coli C7 (O18:K1:H7) [5] = experiment: MIC determination of antibiotics combined with a GmhA inhibitor; format: cell-based; conditions: Escherichia coli, n = 1
# Description: as §1
# E. coli C7 gmhA- = experiment: Complementation of E. coli C7-gmhA- by H7P (LPS SDS-PAGE, UhpT transport); format: cell-based
# Description: Figure S3: Role of UhpT phospho-sugar transporter in the transport of D-glycero-D-manno-heptose
# 7-phosphate (H7P). Complementation of E. coli C7-gmhA- by the GmhA product H7P. Silver-stained
# LPS SDS-PAGE of E. coli C7 WT (lane 1) or gmhA- (lanes 2 -4). Culture in presence of 300 µM H7P (lane
# 100 µM glucose -6-phosphate (G6P) allows a strong transport of H7P, as evidenced by the restoration
# (1 picture or pasted object on this page, not shown here)
# [6] = E. coli C7 LPS biosynthesis by SDS-PAGE, mean ± SD of 3 experiments for 17 and 24, n = 1 for others, read-out: EC50
# [7] = antibiotic alone, E. coli C7, 100 μM G6P, read-out: MIC alone
# [8] = antibiotic combined with 100 μM 17, E. coli C7, 100 μM G6P, read-out: MIC +100 μM cpd 17
# Sequence of E. coli GmhA (P63224 whole entry): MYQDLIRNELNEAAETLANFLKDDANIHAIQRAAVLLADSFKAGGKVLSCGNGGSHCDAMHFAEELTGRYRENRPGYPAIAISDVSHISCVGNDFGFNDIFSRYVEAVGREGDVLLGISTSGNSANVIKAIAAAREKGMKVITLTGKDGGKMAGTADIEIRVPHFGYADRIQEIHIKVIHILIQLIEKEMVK
compound,measurement,setting,value
O=CN(O)C[C@H](O)C[C@H](O)CCP(=O)(O)O [Compound 68],EC50,[1]; [6],1200 µM
same,IC50,E. coli GmhA,3 ± 0.2 µM
O=CN(O)C[C@H](O)[C@H](O)[C@H](O)C(O)CP(=O)(O)O (some centres unmarked) [Compound 31],EC50,[1],590 µM
same,IC50,E. coli GmhA,0.25 ± 0.02 µM
O=C(NO)[C@@H](O)[C@H](O)[C@H](O)[C@H](O)COP(=O)(O)O [Compound 96],concentration above which bacterial growth is affected,[1]; E. coli culture of the LPS assay,> 100 µM
same,EC50,[1]; [6],> 100 µM
same,GmhA inhibition IC50 (in words),E. coli GmhA,low nanomolar range
same,IC50,E. coli GmhA,0.016 ± 0.006 µM
O=CN(O)C[C@H](O)[C@H](O)[C@H](O)CC(F)P(=O)([O-])O.[Na+] (some centres unmarked) [Compound 76],EC50,[1],76 µM
same,GmhA inhibition IC50 (in words),E. coli GmhA,low nanomolar range
COC1O[C@H]([C@H](O)COP(=O)(O)O)[C@@H](O)[C@H](O)[C@H]1O (stereo partly drawn) [methyl 7-O-phosphoryl-D-glycero-D-gluco-heptopyranoside],IC50 values (in words),GmhA,low micromolar range
same,heptosylation inhibition at 1 mM,wild-type E. coli strain,too high to demonstrate heptosylation inhibition
O=CN(O)C[C@H](O)[C@H](O)[C@H](O)CCP(=O)([O-])O.[Na+] [Compound 24],EC50,[1],22 ± 4 µM
same,MIC,"E. coli C7 [2]; Escherichia coli, C7, read-out: MIC E. coli C7",> 1000 µM
same,MIC,"E. coli C7 [2]; compound alone, n = 2, read-out: MIC E. coli C7",>1000 µM
same,CC50,HepG2 cytotoxicity,> 1000 µM
same,reduction of the bacterial load in 80% human serum,E. coli C7 [3],3 log
CO[C@H]1/C=C/O[C@@]2(C)Oc3c(C)c(O)c4c(O)c(c(/C=N/N5CCN(C)CC5)c(O)c4c3C2=O)NC(=O)/C(C)=C\C=C\[C@H](C)[C@H](O)[C@@H](C)[C@@H](O)[C@@H](C)[C@H](OC(C)=O)[C@@H]1C [Rifampicin],"effect on bacterial growth, compound alone",E. coli C7 (O18:K1:H7) [4],did not alter at all the bacterial growth
same,MIC,E. coli C7 (O18:K1:H7) [5]; [7],4 µg/mL
same,MIC,E. coli C7 (O18:K1:H7) [5]; [8],0.25 µg/mL
O=CN(O)C[C@H](O)[C@H](O)[C@H](O)/C=C/P(=O)(O)O [Compound 25],EC50,[1],1300 µM
same,IC50,E. coli GmhA,0.15 ± 0.03 µM
"O=C[C@@H](O)[C@@H](O)[C@H](O)[C@H](O)[C@H](O)COP(=O)(O)O [H7P, D-glycero-D-manno-heptose 7-phosphate]",LPS profile restoration in gmhA- strain,"E. coli C7 gmhA-; 300 µM H7P, without G6P (lane 3)",restores some full length LPS
same,LPS profile restoration in gmhA- strain,E. coli C7 gmhA-; H7P with UhpT induction by 100 µM glucose-6-phosphate (lane 4),full LPS profile
O=CN(O)C[C@H](O)[C@H](O)[C@H](O)CP(=O)(O)O [Compound 20],EC50,[1]; [6],> 3000 µM
same,IC50,E. coli GmhA,2.2 ± 0.5 µM
O=CN(O)C[C@H](O)[C@H](O)[C@H](O)CC(F)(F)P(=O)(O)O [Compound 84],EC50,[1],510 µM
CC[C@H]1OC(=O)[C@H](C)[C@@H](O[C@H]2C[C@@](C)(OC)[C@@H](O)[C@H](C)O2)[C@H](C)[C@@H](O[C@@H]2O[C@H](C)C[C@H](N(C)C)[C@H]2O)[C@](C)(O)C[C@@H](C)C(=O)[C@H](C)[C@@H](O)[C@]1(C)O [Erythromycin],MIC,E. coli C7 (O18:K1:H7) [5]; [7],32 µg/mL
same,MIC,E. coli C7 (O18:K1:H7) [5]; [8],1 µg/mL
O=CN(O)C[C@H](O)[C@H](O)[C@H](O)C(O)C(O)P(=O)(O)O (some centres unmarked) [Compound 27],EC50,[1],> 3000 µM
same,IC50,E. coli GmhA,2.3 ± 0.6 µM
O=CN(O)C[C@H](O)[C@H](O)[C@H](O)CC(O)P(=O)(O)O (some centres unmarked) [Compound 41],EC50,[1],750 µM
same,IC50,E. coli GmhA,0.075 ± 0.009 µM
O=CN(O)C[C@@H](O)[C@H](O)[C@H](O)CCP(=O)(O)O [Compound 54],EC50,[1],> 300 µM
same,IC50,E. coli GmhA,9.2 ± 1.6 µM
